US5173510A, “Simplified thioester and isostere analogs of oleoyl coenzyme A as hypocholesterolemic agents” (American Cyanamid Company, priority 1991, dated 1992)

Molecular target: T1, acyl coenzyme A: cholesterol O-acyltransferase (ACAT) (Oryctolagus cuniculus, UniProt G1SFD9)
T1 construct: The microsomal fraction was isolated by centrifugation and stored frozen; from tissue; host or cells: jejunal mucosa microsomes of New Zealand white rabbits
T1 sequence (G1SFD9 1-524): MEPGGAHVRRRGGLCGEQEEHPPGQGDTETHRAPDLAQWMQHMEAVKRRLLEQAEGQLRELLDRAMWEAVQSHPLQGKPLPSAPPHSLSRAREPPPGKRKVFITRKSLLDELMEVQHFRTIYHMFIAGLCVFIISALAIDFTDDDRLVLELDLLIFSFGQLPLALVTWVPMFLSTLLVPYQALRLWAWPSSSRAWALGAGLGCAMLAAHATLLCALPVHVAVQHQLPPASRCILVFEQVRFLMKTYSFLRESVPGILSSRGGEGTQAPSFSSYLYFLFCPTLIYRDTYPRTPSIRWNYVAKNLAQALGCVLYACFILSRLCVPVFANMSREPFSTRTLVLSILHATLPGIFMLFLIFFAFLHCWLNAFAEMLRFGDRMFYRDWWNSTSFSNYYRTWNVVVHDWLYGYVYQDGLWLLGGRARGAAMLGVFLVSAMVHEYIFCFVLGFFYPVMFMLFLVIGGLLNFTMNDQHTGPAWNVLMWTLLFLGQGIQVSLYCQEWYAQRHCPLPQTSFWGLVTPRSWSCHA
Experiment: Inhibition of ACAT catalyzed formation of cholesterol oleate from endogenous cholesterol and exogenous 14C oleate
Format: biochemical, New Zealand white rabbits
Details: for IC50: concentration at which 50% of the cholesterol esterification reaction is inhibited, rabbit jejunum mucosa microsomal fraction; for potency as inhibitors of the ACAT enzyme catalyzed reaction (in words): summary statement on Table I
Experimental: The compounds of this invention were tested for their ability to inhibit the acyl coenzyme A: cholesterol O-acyltransferase (ACAT) catalyzed formation of cholesterol oleate from endogenous cholesterol and exogenous ^14 C oleate.
The mucosa from the Jejunum of New Zealand white rabbits was removed by scraping with a spatula and homogenized in a solution containing 0.25M sucrose, 1 mM EDTA, 1 mM dithiothreitol and 5 mM of potassium phosphate (pH 7.4). The microsomal fraction was isolated by centrifugation and stored frozen at -70° C. in sucrose buffer (3 mg protein/ml) until use. The ACAT reaction was assayed using the method of S. Hashimoto, et al., Life Science 12, 1 (1973). The test compounds were dissolved in methanol at concentrations such that the addition of 0.003 ml in a reaction volume of 0.5 ml gave the final desired concentration.
Referring to the table, IC50 indicates the concentration of the compound at which 50% of the cholesterol esterfication reaction is inhibited. […] As can be observed from the table, the compounds of the present invention are very potent inhibitors of the ACAT enzyme catalyzed reaction. […] In view of the results presented in the table, these compounds are useful for controlling and reducing the cholesteryl ester content of mammalian arterial walls and decreasing the accumulation and storage of cholesterol in the arterial walls of mammals. Further, the compounds of this invention may inhibit the formation or development of atherosclerotic lesions in mammals.

Row | SMILES | IC50 [µM] | potency as inhibitors of the ACAT enzyme catalyzed reaction (in words)
1 | CCCCCCCC/C=C\CCCCCCCC(=O)SCCNC(=O)CCNC(C)=O [Example 6, S-[2-[[3-(Acetylamino)-1-oxopropyl]amino]ethyl]-9(Z)-octadecenethioate] | > 100 | –
2 | CCCCCCCC/C=C\CCCCCCCC(O)CCCNC(=O)CCNC(=O)C(O)C(C)(C)CO (stereo not drawn) [Example 38, 2,4-Dihydroxy-N-[3-[(4-hydroxy-12(Z)-heneicosyl)amino]-3-oxopropyl]-3,3-dimethylbutanamide] | 57 | –
3 | CCCCCCCC/C=C\CCCCCCCC(=O)SCCNC(C)=O [Example 3, S-[2-(Acetylamino)ethyl]-9(Z)-octadecenethioic acid] | > 100 | –
4 | CCCCCCCC/C=C\CCCCCCCC(O)CCCNC(=O)CCNC(C)=O (stereo not drawn) [Example 33, 3-(Acetylamino)-N-(4-hydroxy-12(Z)-heneicosenyl)propanamide] | 108 | –
5 | CCCCCCCC/C=C\CCCCCCCC(=O)CCCNC(=O)CCNC(C)=O [Example 34, 3-(Acetylamino)-N-(4-oxo-12(Z)-heneicosenyl)propanamide] | 113 | –
6 | CCCCCCCC/C=C\CCCCCCCC(=O)OCCNC(C)=O [Example 11] | > 100 | –
7 | CCCCCCCC/C=C\CCCCCCCC(=O)CCCNC(=O)CCNC(=O)C(O)C(C)(C)CO (stereo not drawn) [Example 37, 2,4-Dihydroxy-2,2-dimethyl-N-[3-oxo-3-[(4-oxo-12(Z)-heneicosenyl)amino]propyl]butanamide] | 99 | –
8 | CCCCCCCC/C=C\CCCCCCCC(=O)CCCNC(C)=O [Example 32] | 66 | –
9 | CCCCCCCC/C=C\CCCCCCCC(=O)NCCNC(C)=O [Example 18, N-[2-(Acetylamino)ethyl]-9(Z)-octadecenamide] | 39 | –
10 | CCCCCCCC/C=C\CCCCCCCC(=O)SCCNC(=O)CCNC(=O)[C@H](O)C(C)(C)CO [Example 10, S-[2-[[3-[(2,4-Dihydroxy-3,3-dimethyl-1-oxobutyl)amino]-1-oxopropyl]amino]ethyl]-9(Z)octadecenethioic acid] | 103 | –
11 | CCCCCCCC/C=C\CCCCCCCC(=O)OCCNC(=O)CCNC(=O)C(O)C(C)(C)CO (stereo not drawn) [Example 17, 2-[[3-[(2,4-Dihydroxy-3,3-dimethyl-1-oxo-butyl)amino]-1-oxopropyl]amino]ethyl-9(Z)-octadecenoate] | 77 | –
12 | CCCCCCCC/C=C\CCCCCCCC(O)CCCNC(C)=O (stereo not drawn) [Example 31] | 47 | –
13 | CCCCCCCC/C=C\CCCCCCCC(=O)NCCNC(=O)CCNC(=O)C(O)C(C)(C)CO (stereo not drawn) [Example 26, N-[2-[[3-[(2,4-Dihydroxy-3,3-dimethyl-1-oxo-butyl)amino]-1-oxopropyl]amino]ethyl]-9(Z)-octadecenamide] | 3.3 | most potent
14 | CCCCCCCC/C=C\CCCCCCCC(=O)NCCNC(=O)CCNC(C)=O [Example 22, N-[2-[[3-(Acetylamino)-1-oxopropyl]amino]ethyl]-9(Z)-octadecenamide] | > 100 | –
15 | CCCCCCCC/C=C\CCCCCCCC(=O)NCCNC(=O)CCNC(=O)C1OC(C)(C)OCC1(C)C (stereo not drawn) [Example 25, 2,2,5,5-Tetramethyl-N-[3-oxo-3-[[2-[(1-oxo-9(Z)-octadecenyl)amino]ethyl]amino]propyl]-1,3-dioxane-4-carboxamide] | 1.2 | most potent
16 | CCCCCCCC/C=C\CCCCCCCC(=O)OCCNC(=O)CCNC(C)=O [Example 13, 2-[[3-(Acetylamino)-1-oxopropyl]amino]ethyl-9(Z)-octadecenoate] | > 150 | –
